Read-outs that look alike come from different tables or passages of the source.
Experiment: Tigecycline plasma PK and % F after intraduodenal (ID) injection in anesthetized rats
Type: in vivo, Sprague-Dawley Rats
Details: female, Sprague-Dawley, rat, plasma
Procedure: Animals weighed approximately 250 g at the time of testing. Rats were fasted overnight (with water available), prior to dosing.
Intravenous (IV) doses were administered as a bolus injection into the left carotid […] at a dose volume of 1.6 mL/kg. Intraduodenal doses were administered as bolus injections into the duodenum at a dose volume of 1.2 mL/kg.
An additional study was conducted exploring the effect of formulation pH at constant CA and LLC concentrations (RA867).
Female rats were maintained in groups of 3 per polycarbonate (or equivalent) shoebox cage with fresh wood chip bedding at 20-22° C. under a 12 hour on/off light:dark cycle. […] After the rats went limp they were injected intraperitoneally (IP) with 0.1 mL ketamine/xylazine. The anesthetic state was maintained by IP injection of ketamine/xylazine on an as needed basis. Animal weights were determined post-anesthesia induction.
An indwelling catheter for blood sampling was inserted into the right carotid artery by exposing the trachea with Mayo scissors, clamping the bottom of the […] and tying off the top with surgical suture. The area between was nicked with small sharp scissors and Intramedic polyethylene tubing was inserted into the nicked area. The artery with the tubing was sealed with suture to prevent leakage. A 23-gauge Intramedic Luer Stub Adapter was inserted into the cannula and attached to a 3 way valve which was connected to a 3 cc syringe filled with 0.9% normal saline and a 1 cc syringe filled with 5 U/mL sodium heparin for blood sampling.
An intraduodenal injection was utilized to mimic oral delivery of an enterically coated capsule or tablet formulation. […] Mayo scissors were used to expose the duodenum and the site of administration was identified by measuring 5 cm from the junction of the stomach and the duodenum towards the jejunum. The measured site was identified by inserting a small piece of surgical suture underneath the site for injection. After the formulation was injected, the abdominal cavity was closed with surgical clips.
Blood samples were collected in tubes containing 20 μL 180 mM EDTA. The tubes were maintained on ice and then centrifuged at approximately 3000 rpm at 4° C. for 5 minutes. Plasma was harvested immediately after centrifugation of the samples and stored at −20° C. pending analysis.
Minocycline (VWR international) was used as an internal standard. Sample processing/clean-up of plasma samples was carried out offline by protein precipitation with acidified acetonitrile.
The HPLC system consisted of Shimadzu SIL-HTc HPLC system equipped with dual Shimadzu LC-10ADvp isopumps, a Shimadzu CTO-10ASvp column temperature controller and a Shimadzu SPD-10Avp variable wavelength detector. […] Mobile phase A consisted of 23 mM phosphate buffer pH 2.5 with 6 mM 1-octanesulfonic acid, while mobile phase B consisting of pure acetonitrile. […] The mobile phase flow rate was 1.2 mL/min. Detection was performed using the SPD-10Avp variable wavelength detector set at 350 nm, with a sensitivity of 0.001 aufs.
The samples were then centrifuged under refrigeration at 13 k rpm for 30 minutes. The supernatant was taken and the liquid was removed to dryness in a turbovap. The samples were then reconstituted in 55 μL 0.1M phosphate buffer, pH 3.8. Samples were maintained at 10° C. while on the autoinjector during sequence. The injection volume was 50 μL. The unknown concentration in rat plasma samples was determined by interpolation of the peak area ratios of analyte:internal standard versus the ratio of their nominal concentrations into the regression line obtained from calibration standards spiked in pooled rat plasma. No regression weighting was used for the calculations. […] The calibration curve covered the range of 0.05 μg/mL to 5.0 μg/mL.

[1] = […], RA869, ID, 400 mM CA/26 mM LLC
[2] = other: intraduodenal bolus injection, 4.8 mg/kg, ID, PBS, 4.8 mg/kg (RA851)
[3] = other: intraduodenal bolus injection, 4.8 mg/kg, pH 3.5, ID, 100 mM CA (pH 3.5), 26 mM LLC, 4.8 mg/kg (RA851)
[4] = other: intraduodenal bolus injection, 4.8 mg/kg, pH 3.5, ID, 400 mM CA (pH 3.5), 26 mM LLC, 4.8 mg/kg (RA851), parent Tigecycline peak only
[5] = other: intraduodenal bolus injection, 9 mg/kg, ID, PBS, 9.0 mg/kg (RA853), animal RA853-4 only
[6] = other: intraduodenal bolus injection, 9 mg/kg, pH 3.5, ID, 100 mM CA (pH 3.5), 26 mM LLC, 9.0 mg/kg (RA853)
[7] = other: intraduodenal bolus injection, 9 mg/kg, pH 3.5, ID, 400 mM CA (pH 3.5), 26 mM LLC, 9.0 mg/kg (RA853), parent Tigecycline peak only

## CN(C)c1cc(NC(=O)CNC(C)(C)C)c(O)c2c1C[C@H]1C[C@H]3[C@H](N(C)C)C(O)=C(C(N)=O)C(=O)[C@@]3(O)C(O)=C1C2=O [Tigecycline]
[…], RA869, ID, 26 mM LLC only, […], read-out: Cmax, mean
  Cmax: 105 ng/mL
[1]
  AUC(0-t): 222 ng·h/mL
  Tmax: 15 min
[…], RA869, ID, 400 mM CA/26 mM LLC, […], read-out: % F, mean
  bioavailability: 21.6%
[…], RA869, ID, 400 mM CA/26 mM LLC, […], read-out: Cmax, mean
  Cmax: 246 ng/mL
[2]
  concentration at 0 min: 0 ng/mL
  concentration at 10 min: 31 ng/mL
  concentration at 20 min: 31 ng/mL
  concentration at 30 min: 33 ng/mL
  concentration at 60 min: 0 ng/mL
  concentration at 120 min: 53 ng/mL
  concentration at 240 min: 66 ng/mL
[3]
  concentration at 0 min: 0 ng/mL
  concentration at 10 min: 710 ng/mL
  concentration at 20 min: 672 ng/mL
  concentration at 30 min: 601 ng/mL
  concentration at 60 min: 398 ng/mL
  concentration at 120 min: 306 ng/mL
[4]
  concentration at 0 min: 0 ng/mL
  concentration at 10 min: 920 ng/mL
  concentration at 20 min: 788 ng/mL
  concentration at 30 min: 618 ng/mL
  concentration at 60 min: 455 ng/mL
  concentration at 120 min: 345 ng/mL
  concentration at 240 min: 386 ng/mL
[5]
  concentration at 0 min: 0 ng/mL
  concentration at 10 min: 0 ng/mL
  concentration at 20 min: 0 ng/mL
  concentration at 30 min: 391 ng/mL
  concentration at 60 min: 440 ng/mL
  concentration at 120 min: 129 ng/mL
[6]
  concentration at 0 min: 0 ng/mL
  concentration at 10 min: 1770 ng/mL
  concentration at 20 min: 1980 ng/mL
  concentration at 30 min: 1350 ng/mL
  concentration at 60 min: 608 ng/mL
  concentration at 120 min: 273 ng/mL
[7]
  concentration at 0 min: 0 ng/mL
  concentration at 10 min: 2490 ng/mL
  concentration at 20 min: 2160 ng/mL
  concentration at 30 min: 1760 ng/mL
  concentration at 60 min: 1060 ng/mL
  concentration at 120 min: 683 ng/mL
other: intraduodenal bolus injection, pH 3.5, ID, 400 mM CA pH 3.5 and 26 mM LLC (RA851, RA853), read-out: absolute % F
  bioavailability: ~22%
other: intraduodenal injection, 4.8 mg/kg, ID, PBS, 4.8 mg/kg (RA851), relative to 0.64 mg/kg IV, read-out: % F, Mean
  bioavailability: 1.6%
other: intraduodenal injection, 4.8 mg/kg, pH 3.5, ID, 100 mM CA (pH 3.5), 26 mM LLC, 4.8 mg/kg (RA851), relative to 0.64 mg/kg IV, read-out: % F, Mean
  bioavailability: 10.9%
other: intraduodenal injection, 9 mg/kg, ID, PBS, 9.0 mg/kg (RA853), without animal RA853-6, relative to 12 mg/kg IV, read-out: % F, Mean
  bioavailability: 2.8%
other: intraduodenal injection, 9 mg/kg, ID, PBS, 9.0 mg/kg (RA853), suspected injection site leakage, read-out: Cmax, one animal not included in the mean
  Cmax: 1110 ng/mL
other: intraduodenal injection, 9 mg/kg, pH 3.5, ID, 100 mM CA (pH 3.5), 26 mM LLC, 9.0 mg/kg (RA853), relative to 12 mg/kg IV, read-out: % F, Mean
  bioavailability: 11.4%
other: intraduodenal injection, 9 mg/kg, pH 3.5, ID, 400 mM CA (pH 3.5), 26 mM LLC, 9.0 mg/kg (RA853), parent Tigecycline peak only, relative to 12 mg/kg IV, read-out: % F, Mean
  bioavailability: 21.8%
other: intraduodenal injection, […], RA869, ID, 26 mM LLC only, […], read-out: % F, mean
  bioavailability: 9%
other: intraduodenal injection, […], RA869, ID, 400 mM CA/26 mM LLC, […], read-out: % F, mean
  bioavailability: ~22%
other: intraduodenal injection, pH 3.5, ID, 100 mM CA pH 3.5 and 26 mM LLC (RA851, RA853), read-out: absolute % F
  bioavailability: ~11%
